Measurements as given in patent US8354436B2 (4SC Discovery GmbH, priority 2011, dated 2013).

Tests used:
Type in all cases: cell-based
IL-17FF = IL-17FF production by PHA-stimulated human PBMC (human IL-17F ELI-Pair); conditions: human PBMC, 2 μg/ml PHA, 48 hours; read-out: B: IC50 (IL-17FF)
Description: Analysis of Proliferation of and Cytokine Production by Human PBMC Stimulated with PHA
Peripheral blood mononuclear cells (PBMC) from healthy human donors were purified using Accuspin™ System-Histopaque-1077 (Sigma) according to the protocol recommended by the manufacturer. Purified PBMC were then washed twice with phosphate-buffered saline (PBS) and resuspended in RPMI1640 culture medium supplemented with 10% dialyzed heat inactivated fetal calf serum, 1.5 mM L-glutamine, 100 U penicillin/ml, and […] (all from PAN Biotech, Aidenbach, Germany). For stimulation, PBMC were seeded at 1×10^5 cells/well, activated with 2 μg/ml phytohaemagglutinin (PHA, Sigma) and incubated with the test compounds for 48 hours. IL-17A, IL-17F and INF-γ were then determined in the culture supernatant using a Luminex BioPlex system, following the manufacturer's instructions (BioRad, Munich, Germany). For screening, compounds were used at 10, 1, 0.1 and 0.01 μM. To determine the IC50, compounds were titrated semilogarithmically.
Cytokines were determined in the aforementioned culture supernatant using the following methods: IL-17AA/AF was measured using the Luminex BioPlex system (BioRad, Munich, Germany); IL-17AA using the human homodimer IL-17A ELISA Ready Set Go Kit from eBioscience (Frankfurt, Germany); IL-17FF using the human IL-17F ELI-Pair from Hölzel DiagnosticaGmBH (Köln, Germany); and IFN-γ using the OptEIA human IFN-g ELISA from BD Bioscience (Heidelberg, Germany), all following the manufacturer's instructions.

IFN-γ = IFN-γ production by PHA-stimulated human PBMC (OptEIA human IFN-g ELISA); conditions: human PBMC, 2 μg/ml PHA, 48 hours; read-out: C: IC50 (IFNγ)
Summary of the method: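 Compounds are titrated semilogarithmically for IC50, or tested at 10, 1, 0.1 and 0.01 μM for screening, on healthy-donor PBMC activated with 2 μg/ml PHA. After 48 h, secreted cytokine is measured in supernatant.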

[1] = system: PBMC from healthy human donors; assay: T cell proliferation assay (PHA-stimulated human PBMC, BrdU ELISA); conditions: human PBMC, 2 μg/ml PHA, 48 hours, read-out: D: IC50 (Tcell proliferation)
Summary of the method: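 Healthy-donor PBMC isolated on Ficoll, seeded at 1×10⁵ cells/well in RPMI with 10% dialysed FCS, stimulated with 2 μg/ml PHA in presence of test compound. Proliferation read after 48 hours by BrdU-incorporation ELISA.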

Compound	IC50 (IL-17FF) [nM]	IC50 (IFN-γ) [nM]	IC50 [1] [nM]
Fc1cccc(Cl)c1-c1noc(-c2cnn(-c3cccc(Cl)c3)c2C(F)(F)F)c1-c1cnco1 [Example 8, 3-(2-chloro-6-fluorophenyl)-5-(1-(3-chlorophenyl)-5-(trifluoromethyl)-1H-pyrazol-4-yl)-4-(oxazol-5-yl)isoxazole]	< 10	< 10	< 10
Oc1csc(-c2c(-c3c(F)cccc3Cl)noc2-c2cnn(-c3cccc(F)c3)c2C(F)(F)F)n1 [Example 9, 2-(3-(2-chloro-6-fluorophenyl)-5-(1-(3-fluorophenyl)-5-(trifluoromethyl)-1H-pyrazol-4-yl)isoxazol-4-yl)thiazol-4-ol]	100 to 1000	100 to 1000	100 to 1000
COc1csc(-c2c(-c3c(F)cccc3Cl)noc2-c2cnn(-c3cccc(F)c3)c2C(F)(F)F)n1 [Example 10, 3-(2-chloro-6-fluorophenyl)-5-(1-(3-fluorophenyl)-5-(trifluoromethyl)-1H-pyrazol-4-yl)-4-(4-methoxythiazol-2-yl)isoxazole]	100 to 1000	10 to 100	10 to 100
Fc1cccc(-n2ncc(-c3onc(-c4c(F)cccc4Cl)c3-c3ccccc3)c2C(F)(F)F)c1 [Example 14, 3-(2-chloro-6-fluorophenyl)-5-(1-(3-fluorophenyl)-5-(trifluoromethyl)-1H-pyrazol-4-yl)-4-phenylisoxazole]	100 to 1000	10 to 100	100 to 1000
Fc1ccccc1-n1ncc(-c2onc(-c3c(F)cccc3Cl)c2-c2nnco2)c1C(F)(F)F [Example 15, 2-(3-(2-chloro-6-fluorophenyl)-5-(1-(2-fluorophenyl)-5-(trifluoromethyl)-1H-pyrazol-4-yl)isoxazol-4-yl)-1,3,4-oxadiazole]	100 to 1000	100 to 1000	100 to 1000
Fc1cccc(-n2ncc(-c3onc(-c4c(F)cccc4Cl)c3-c3ccsc3)c2C(F)(F)F)c1 [Example 16, 3-(2-chloro-6-fluorophenyl)-5-(1-(3-fluorophenyl)-5-(trifluoromethyl)-1H-pyrazol-4-yl)-4-(thiophen-3-yl)isoxazole]	100 to 1000	< 10	< 10
Fc1cccc(-n2ncc(-c3onc(-c4c(F)cccc4Cl)c3-c3ccco3)c2C(F)(F)F)c1 [Example 17, 3-(2-chloro-6-fluorophenyl)-5-(1-(3-fluorophenyl)-5-(trifluoromethyl)-1H-pyrazol-4-yl)-4-(furan-2-yl)isoxazole]	< 10	< 10	< 10
CC(=O)Nc1cccc(-n2ncc(-c3onc(-c4c(F)cccc4Cl)c3-c3nnc(C)s3)c2C(F)(F)F)c1 [Example B-12, N-(3-(4-(3-(2-chloro-6-fluorophenyl)-4-(5-methyl-1,3,4-thiadiazol-2-yl)isoxazol-5-yl)-5-(trifluoromethyl)-1H-pyrazol-1-yl)phenyl)acetamide]	1000 to 10000	100 to 1000	1000 to 10000

More lines, main results first:

IC50 (IL-17FF) [nM]	IC50 (IFN-γ) [nM]	Compound	IC50 [1] [nM]
100 to 1000	100 to 1000	CCOC(=O)c1csc(-c2c(-c3c(F)cccc3Cl)noc2-c2cnn(-c3cccc(F)c3)c2C(F)(F)F)n1 [Example B-1, ethyl 2-(3-(2-chloro-6-fluorophenyl)-5-(1-(3-fluorophenyl)-5-(trifluoromethyl)-1H-pyrazol-4-yl)isoxazol-4-yl)thiazole-4-carboxylate]	100 to 1000
< 10	< 10	Cc1nnc(-c2c(-c3c(F)cccc3Cl)noc2-c2cnn(-c3cccc(Cl)c3)c2C(F)(F)F)s1 [Example B-3, 3-(2-chloro-6-fluorophenyl)-5-(1-(3-chlorophenyl)-5-(trifluoromethyl)-1H-pyrazol-4-yl)-4-(5-methyl-1,3,4-thiadiazol-2-yl)isoxazole]	< 10
< 10	< 10	Cc1nnc(-c2c(-c3c(F)cccc3Cl)noc2-c2cnn(-c3cccc(Cl)c3)c2C(F)(F)F)o1 [Example B-4, 2-(3-(2-chloro-6-fluorophenyl)-5-(1-(3-chlorophenyl)-5-(trifluoromethyl)-1H-pyrazol-4-yl)isoxazol-4-yl)-5-methyl-1,3,4-oxadiazole]	< 10
< 10	< 10	Fc1cccc(Cl)c1-c1noc(-c2cnn(-c3cccc(Cl)c3)c2C(F)(F)F)c1-c1nnco1 [Example B-5, 2-(3-(2-chloro-6-fluorophenyl)-5-(1-(3-chlorophenyl)-5-(trifluoromethyl)-1H-pyrazol-4-yl)isoxazol-4-yl)-1,3,4-oxadiazole]	< 10
< 10	< 10	Fc1cccc(Cl)c1-c1noc(-c2cnn(-c3cccc(Cl)c3)c2C(F)(F)F)c1-c1ccco1 [Example B-6, 3-(2-chloro-6-fluorophenyl)-5-(1-(3-chlorophenyl)-5-(trifluoromethyl)-1H-pyrazol-4-yl)-4-(furan-2-yl)isoxazole]	< 10
< 10	< 10	Fc1cccc(Cl)c1-c1noc(-c2cnn(-c3cccc(Cl)c3)c2C(F)(F)F)c1-c1ccoc1 [Example B-7, 3-(2-chloro-6-fluorophenyl)-5-(1-(3-chlorophenyl)-5-(trifluoromethyl)-1H-pyrazol-4-yl)-4-(furan-3-yl)isoxazole]	< 10
< 10	< 10	Fc1cccc(Cl)c1-c1noc(-c2cnn(-c3cccc(Cl)c3)c2C(F)(F)F)c1-c1nncs1 [Example B-8, 3-(2-chloro-6-fluorophenyl)-5-(1-(3-chlorophenyl)-5-(trifluoromethyl)-1H-pyrazol-4-yl)-4-(1,3,4-thiadiazol-2-yl)isoxazole]	< 10
100 to 1000	10 to 100	Cc1nnc(-c2c(-c3c(F)cccc3Cl)noc2-c2cnn(-c3cccnc3)c2C(F)(F)F)o1 [Example B-10, 2-(3-(2-chloro-6-fluorophenyl)-5-(1-(pyridin-3-yl)-5-(trifluoromethyl)-1H-pyrazol-4-yl)isoxazol-4-yl)-5-methyl-1,3,4-oxadiazole]	100 to 1000
100 to 1000	100 to 1000	Fc1cccc(Cl)c1-c1noc(-c2cnn(-c3cccnc3)c2C(F)(F)F)c1-c1nnco1 [Example B-15, 2-(3-(2-chloro-6-fluorophenyl)-5-(1-(pyridin-3-yl)-5-(trifluoromethyl)-1H-pyrazol-4-yl)isoxazol-4-yl)-1,3,4-oxadiazole]	100 to 1000
100 to 1000	100 to 1000	Fc1cccc(Cl)c1-c1noc(-c2cnn(-c3ccncc3)c2C(F)(F)F)c1-c1nnco1 [Example B-16, 2-(3-(2-chloro-6-fluorophenyl)-5-(1-(pyridin-4-yl)-5-(trifluoromethyl)-1H-pyrazol-4-yl)isoxazol-4-yl)-1,3,4-oxadiazole]	100 to 1000
1000 to 10000	1000 to 10000	NS(=O)(=O)c1cccc(-n2ncc(-c3onc(-c4c(F)cccc4Cl)c3-c3nnco3)c2C(F)(F)F)c1 [Example B-17, 3-(4-(3-(2-chloro-6-fluorophenyl)-4-(1,3,4-oxadiazol-2-yl)isoxazol-5-yl)-5-(trifluoromethyl)-1H-pyrazol-1-yl)benzenesulfonamide]	1000 to 10000
